Laboratory results as given in US5525328A, “Nanoparticulate diagnostic diatrizoxy ester X-ray contrast agents for blood pool and lymphatic system imaging” (NanoSystems L.L.C., priority 1994, dated 1996).

Experiments:
[1] = tested on: liver; experiment: CT imaging, liver opacification and clearance; assay type: in vivo, white New Zealand rabbits
Experimental: (§1) This sample was examined for imaging efficacy at the Center for Imaging and Pharmaceutical Research (CIPR) at the Massachusetts General Hospital in Charlestown, Mass. The sample was injected into white New Zealand rabbits at a dose of 3 ml/kg as a slow bolus injection. At times of 5, 15, 30, 60 and 120 min. post injection, the opacification of the liver, spleen, and blood pool as measured in the aorta and within the left ventricle was determined by computed tomography (CT) using a Toshiba 900S Imager CT scanner and associated software.

[2] = tested on: spleen; experiment: CT imaging, spleen opacification and clearance; assay type: in vivo, white New Zealand rabbits
Experimental: as §1, with “[…],” for “At times of 5, 15, 30, 60 and 120 min. post injection,”

[3] = Particle size after autoclaving at 121° C. for 20 min. (heat stability); assay type: physicochemical
Experimental: (§2) Compound 2 was added to each of 3×1.5 oz brown glass bottles containing approximately 12 ml of zirconium silicate (1.1 mm dia.) beads in an amount sufficient to be 15% (w/v) of the final suspension. Bottle A contained 3% (w/v) Pluronic F-68. Bottle B contained 3% (w/v) Pluronic F108. Bottle C contained 3% (w/v) Tetronic T-908. The resulting suspensions were milled on a roller mill at approximately 150 rpm for a total of 9 days. Estimates of particle size determined at various intervals were as detailed below:
0.1% (w/v) DOSS was added to the F108 and T908 samples for autoclaving as cloud point modifiers.
(§3) Compound 2 was milled with zirconium silicate (1.1 mm dia) beads in the presence of Pluronic F-108 for 3 days. The final particle size was determined to be 235 nm. At this point, sterile PEG 400 was added to the suspension such that at completion, the formulation contained 15% (w/v) WIN 70146, 3% (w/v) Pluronic F-108, and 10% (w/v) PEG 400. This formulation was then autoclaved under standard conditions, i.e., 121° C. for 20 min., resulting in a final particle size of 248 nm.

[4] = Aqueous solubility relative to the butyrate ester; assay type: physicochemical
[5] = Particle size after storage for 1 additional week at room temperature (shelf stability); assay type: physicochemical; conditions: with both F108 and T908
Experimental: as §2, with “below: […]” for “below:”

[6] = tested on: blood pool; experiment: CT imaging, blood pool opacification and clearance; assay type: in vivo, white New Zealand rabbits
Experimental: as §1
(§4) This formulation was evaluated at CIPR for both blood pool and lymphographic imaging in New Zealand White Rabbits using the above-described protocol (3 ml/kg) for blood pool imaging and 2 injections (0.25 ml) per paw for lymphography. […] Scanning was carried out using a Toshiba 900S Imager CT scanner and image density was calculated from iodinated standards imaged simultaneously with the animals.

[7] = Particle size after milling (light scattering); assay type: physicochemical
Experimental: 15% Compound 2 was milled with 4% Pluronic F-108 in the presence of zirconium silicate (1.1 mm dia) beads for 3 days under aseptic conditions. No additional salts or surfactants were added. The average particle size of the resulting nanoparticle suspension was 162 nm as determined by light scattering.
as §3

[8] = tested on: lymph; experiment: Lymphographic imaging by CT; assay type: in vivo, New Zealand White Rabbits; conditions: autoclaved Pluronic F-108/PEG 400 formulation; 2 injections (0.25 ml) per paw
Experimental: as §4

[9] = Crystal forms / polymorphism on recrystallization; assay type: physicochemical; conditions: e.g., when recrystallized from various solvents
[10] = 15% Compound 2, 4% Pluronic F-108, 3 ml/kg slow bolus
[11] = 24 hours post injection, 3 ml/kg

Row | SMILES | Liver opacification, duration [1, 10] [min] | Liver opacification, grade [1, 10] | Clearance from the liver [1, 11] | Spleen opacification, duration [2, 10] [min] | Spleen opacification, grade [2, 10] | Clearance from the spleen [2, 11] | Final particle size after autoclaving ([3]; 15% (w/v) compound, 3% (w/v) Pluronic F-108, 10% (w/v) PEG 400, 121° C. for 20 min.) [nm] | Stability to heat autoclaving ([3]; with both F108 and T908) | Aqueous solubility, times lower than ethyl 2-(3,5-bis(acetylamino)-2,4,6-triiodobenzoyloxy)butyrate [4] | Shelf stability [5] | Blood pool opacification, duration [6, 10] [min] | Blood pool opacification, grade [6, 10] | Clearance from the blood [6, 11] | Blood pool opacification, duration ([6]; autoclaved Pluronic F-108/PEG 400 formulation, 3 ml/kg) | Average particle size ([7]; 15% Compound 2, 4% Pluronic F-108, milled 3 days, light scattering) [nm] | Final particle size after milling ([7]; Pluronic F-108, milled 3 days, before PEG 400 and autoclaving) [nm] | Lymphography level of opacification [8] | Lymphography performance [8] | Stability during autoclaving ([3]; nanoparticulate formulations, conventional heat sterilization) | Crystal forms [9]
1 | CCCCC(OC(=O)c1c(I)c(NC(C)=O)c(I)c(NC(C)=O)c1I)C(=O)OCC (centres unmarked) [Compound 2, ethyl 2-(3,5-diacetamido-2,4,6-triiodobenzoyloxy)hexanoate] | 120 | very good | partial clearance | 120 | very good | partial clearance | 248 | excellent stability to heat autoclaving | about 40 times | excellent stability to heat autoclaving and shelf stability | > 30 | excellent | complete clearance | at least 30 min | 162 | 235 | highest level of opacification noted to date in this indication | excellent lymphography agent |  | 
2 | CCOC(=O)C(CC)OC(=O)c1c(I)c(NC(C)=O)c(I)c(NC(C)=O)c1I (centres unmarked) [ethyl 2-(3,5-bis(acetylamino)-2,4,6-triiodobenzoyloxy)butyrate, reference compound] |  |  |  |  |  |  |  |  |  |  |  |  |  |  |  |  |  |  | do not exhibit good stability during autoclaving | exhibits multiple crystal forms, i.e., polymorphs
